What is called Ki is the dissociation constant of the complex between target and ligand, obtained from inhibition or displacement. Low readings indicate a stronger hold on the target, high ones a looser hold on the target.

SMILES strings stand for the structures.

One assay addresses T1, hCRTH2 (Homo sapiens, UniProt Q9Y5Y4).
T1 construct: expressed in transfected cells; host or cells: HEK (human embryonic kidney) cells expressing hCRTH2
T1 sequence (Q9Y5Y4 1-395): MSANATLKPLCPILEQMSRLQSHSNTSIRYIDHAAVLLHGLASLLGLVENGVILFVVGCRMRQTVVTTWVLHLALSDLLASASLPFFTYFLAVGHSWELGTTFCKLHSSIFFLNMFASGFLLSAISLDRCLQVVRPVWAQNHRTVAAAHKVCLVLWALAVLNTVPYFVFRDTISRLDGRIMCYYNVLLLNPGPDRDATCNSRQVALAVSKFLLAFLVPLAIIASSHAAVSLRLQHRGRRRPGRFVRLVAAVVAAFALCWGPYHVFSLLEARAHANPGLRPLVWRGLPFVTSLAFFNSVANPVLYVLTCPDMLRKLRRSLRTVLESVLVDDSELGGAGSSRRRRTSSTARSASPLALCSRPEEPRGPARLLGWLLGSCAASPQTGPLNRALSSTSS
The assay is described as follows: Radioligand Binding Assay A ([3H]PGD2 filtration binding, HEK-hCRTH2 membranes). As to conditions: Table A, rated A-D. How it is done: Radioligand binding assays were performed at room temperature in 50 mM Tris-HCl pH 7.4, 1 mM EDTA containing 2 mM MnCl2 and 3.0 nM [^3H]PGD2 (New England Nuclear, Boston, Mass.) (171 Ci mmol^−1), in a final volume of 0.2 ml. Competing ligands were diluted in dimethylsulfoxide (Me2SO) that was kept constant at 1% (v/v) of the final incubation volume. The reaction was initiated by the addition of 8-20 μg of membrane protein prepared from a human embryonic kidney (HEK)-hCRTH2 cell line. Total and non-specific binding were determined in the absence and the presence of 10 μM PGD2, respectively. Under these conditions, specific binding (total minus non-specific) of the radioligand to the receptor reached equilibrium within 50 min and was stable up to 180 min. The reaction was routinely conducted for 60 min at room temperature and terminated by rapid filtration through prewetted (0.3% polyethyleneimine) 96-well printed Filtermate™ (Wallac) using a Tomtec® harvester (Hamden, Conn.). After washing with cold buffer, the filter was dried for 2 minutes in microwave, and Meltilex Scintillator sheet (Wallac) was melted on for 2 min. The radioactivity was measured with Betaplate model 1205 (Wallac).
The compound `O=C(O)CCCCc1cc2cc(C(=O)N[C@H]3CCCc4cc(Cl)ccc43)ccc2nc1-c1ccc(F)cc1` [Compound 5S, 6-[[(6-chloro-1,2,3,4-tetrahydro-1(S)-naphthalenyl)amino]carbonyl]-2-(4-fluorophenyl)-3-quinolinepentanoic acid] registered a Ki of 2.1 to 20 nM. Compound `N#Cc1ccc([C@H](NC(=O)c2ccc3nc(-c4ccc(F)cc4)c(CCCCC(=O)O)cc3c2)C(F)(F)F)cc1` [Compound 5T] displayed an inhibition constant Ki of 20.1 to 200 nM. `CN(Cc1ccc(Cl)cc1)C(=O)c1ccc2nc(-c3ccc(F)cc3)c(CCCCC(=O)O)cc2c1` [Compound 5U, 6-[[[(4-chlorophenyl)methyl]methylamino]carbonyl]-2-(4-fluorophenyl)-3-quinolinepentanoic acid] registered a Ki of 2.1 to 20 nM. The same measure, in the same setting: under `CN(Cc1ccc(C(F)(F)F)cc1)C(=O)c1ccc2nc(-c3ccc(F)cc3)c(CCCCC(=O)O)cc2c1` [Compound 5V, 2-(4-fluorophenyl)-6-[[methyl[[4-(trifluoromethyl)phenyl]methyl]amino]carbonyl]-3-quinolinepentanoic acid] stands 2.1 to 20 nM; under `CN(Cc1cccc(C(F)(F)F)c1)C(=O)c1ccc2nc(-c3ccc(F)cc3)c(CCCCC(=O)O)cc2c1` [Compound 5W, 2-(4-fluorophenyl)-6-[[methyl[[3-(trifluoromethyl)phenyl]methyl]amino]carbonyl]-3-quinolinepentanoic acid], 20.1 to 200 nM. Consider `C[C@@H](NC(=O)c1ccc2nc(-c3ccc(F)cc3)c(CCCCC(=O)O)cc2c1)c1cc(Cl)cc(Cl)c1` [Compound 5X, 6-[[[1(R)-(3,5-dichlorophenyl)ethyl]amino]carbonyl]-2-(4-fluorophenyl)-3-quinolinepentanoic acid], for which the Ki lay in the range of 2.1 to 20 nM. On the same count and under the same terms, as for `C[C@H](NC(=O)c1ccc2nc(-c3ccc(F)cc3)c(CCCCC(=O)O)cc2c1)c1cc(Cl)cc(Cl)c1` [Compound 5Y, 6-[[[1(S)-(3,5-dichlorophenyl)ethyl]amino]carbonyl]-2-(4-fluorophenyl)-3-quinolinepentanoic acid], the figure is 2.1 to 20 nM; as for `C[C@H](NC(=O)c1ccc2nc(-c3ccc(F)cc3)c(CCCCC(=O)O)cc2c1)c1ccc(Cl)cc1` [Compound 5i], 2.1 to 20 nM; as for `O=C(O)CCCCc1cc2cc(C(=O)N[C@@H]3CCc4cc(Cl)ccc43)ccc2nc1-c1ccc(F)cc1` [Compound 5o, 6-[[(5-chloro-2,3-dihydro-1H-inden-1(R)-yl)amino]carbonyl)-2-(4-fluorophenyl)-3-quinolinepentanoic acid], 2.1 to 20 nM.

As to `C[C@@H](NC(=O)c1cnc2nc(-c3ccc(F)cc3)c(CCCCC(=O)O)cc2c1)c1ccc(Cl)cc1` [Compound 6, 6-[[[1(R)-(4-chlorophenyl)ethyl]amino]carbonyl]-2-(4-fluorophenyl)-1,8-naphthyridine-3-pentanoic acid], the Ki is 20.1 to 200 nM.

`C[C@@H](NC(=O)c1cnc2nc(-c3ccc(F)cc3)c(CCCCC(=O)O)cc2c1)c1ccc(F)cc1` [Compound 6D, 2-(4-fluorophenyl)-6-[[[1(R)-(4-fluorophenyl)ethyl]amino]carbonyl]-1,8-naphthyridine-3-pentanoic acid] displayed a Ki of 20.1 to 200 nM.

`O=C(O)CCCCc1cc2cc(C(=O)N[C@@H]3CCc4cc(Cl)ccc43)cnc2nc1-c1ccc(F)cc1` [Compound 6E, 6-[[(5-chloro-2,3-dihydro-1H-inden-1(R)-yl)amino]carbonyl]-2-(4-fluorophenyl)-1,8-naphthyridine-3-pentanoic acid] yielded a Ki of 2.1 to 20 nM. In turn, `O=C(O)CCCCc1cc2cc(C(=O)N[C@@H]3CCc4ccc(F)cc43)cnc2nc1-c1ccc(F)cc1` [Compound 6F, 6-[[(6-fluoro-2,3-dihydro-1H-inden-1(R)-yl)amino]carbonyl]-2-(4-fluorophenyl)-1,8-naphthyridine-3-pentanoic acid] came in with a Ki of 20.1 to 200 nM. As for `O=C(O)CCCCc1cc2cc(C(=O)N[C@@H]3CCCc4cc(Cl)ccc43)cnc2nc1-c1ccc(F)cc1` [Compound 6G, 6-[[(6-chloro-1,2,3,4-tetrahydro-1(R)-naphthalenyl)amino)carbonyl]-2-(4-fluorophenyl)-1,8-naphthyridine-3-pentanoic acid], the Ki was in the range of 2.1 to 20 nM. As to `O=C(O)CCCCc1cc2cc(C(=O)N[C@@H]3CCCc4ccc(F)cc43)cnc2nc1-c1ccc(F)cc1` [Compound 6H, 2-(4-fluorophenyl)-6-[[(7-fluoro-1,2,3,4-tetrahydro-1(R)-naphthalenyl)amino]carbonyl]-1,8-naphthyridine-3-pentanoic acid], the Ki is 20.1 to 200 nM. Same read-out and setting: under `C[C@H](NC(=O)c1cnc2nc(-c3ccc(F)cc3)c(CCCCC(=O)O)cc2c1)c1ccc(Cl)cc1` [Compound 6J, 6-[[[1(S)-(4-chlorophenyl)ethyl]amino]carbonyl]-2-(4-fluorophenyl)-1,8-naphthyridine-3-pentanoic acid] stands 20.1 to 200 nM; under `C[C@H](NC(=O)c1cnc2nc(-c3ccc(F)cc3)c(CCCCC(=O)O)cc2c1)c1ccc(F)cc1` [Compound 6K, 2-(4-fluorophenyl)-6-[[[1(S)-(4-fluorophenyl)ethyl]amino]carbonyl]-1,8-naphthyridine-3-pentanoic acid], 20.1 to 200 nM.

`O=C(O)CCCCc1cc2cc(C(=O)N[C@H]3CCc4cc(Cl)ccc43)cnc2nc1-c1ccc(F)cc1` [Compound 6L, 6-[[(5-chloro-2,3-dihydro-1H-inden-1(S)-yl)amino]carbonyl]-2-(4-fluorophenyl)-1,8-naphthyridine-3-pentanoic acid] gave a Ki of 2.1 to 20 nM.

As to `O=C(O)CCCCc1cc2cc(C(=O)N[C@H]3CCc4ccc(F)cc43)cnc2nc1-c1ccc(F)cc1` [Compound 6M, 6-[[(6-fluoro-2,3-dihydro-1H-inden-1(S)-yl)amino]carbonyl]-2-(4-fluorophenyl)-1,8-naphthyridine-3-pentanoic acid], the Ki lay within 20.1 to 200 nM. For `O=C(O)CCCCc1cc2cc(C(=O)N[C@H]3CCCc4cc(Cl)ccc43)cnc2nc1-c1ccc(F)cc1` [Compound 6N, 6-[[(6-chloro-1,2,3,4-tetrahydro-1(S)-naphthalenyl)amino]carbonyl]-2-(4-fluorophenyl)-1,8-naphthyridine-3-pentanoic acid], the Ki was 20.1 to 200 nM. `COc1ccc([C@H](NC(=O)c2cnc3nc(-c4ccc(F)cc4)c(CCCCC(=O)O)cc3c2)C(F)(F)F)cc1` [Compound 6P, 2-(4-fluorophenyl)-6-[[[2,2,2-trifluoro-1(S)-(4-methoxyphenyl)ethyl]amino]carbonyl]-1,8-naphthyridine-3-pentanoic acid] had a Ki of 20.1 to 200 nM. The compound `O=C(O)CCCCc1cc2cc(C(=O)N[C@H](c3cc(Cl)cc(Cl)c3)C(F)(F)F)cnc2nc1-c1ccc(F)cc1` [Compound 6Q, 6-[[[1(R)-(3,5-dichlorophenyl)-2,2,2-trifluoroethyl]amino]carbonyl]-2-(4-fluorophenyl)-1,8-naphthyridine-3-pentanoic acid] showed a Ki of 2.1 to 20 nM.

`O=C(O)CCCCc1cc2cc(C(=O)N[C@@H](c3cc(Cl)cc(Cl)c3)C(F)(F)F)cnc2nc1-c1ccc(F)cc1` [Compound 6R, 6-[[[1(S)-(3,5-dichlorophenyl)-2,2,2-trifluoroethyl]amino]carbonyl]-2-(4-fluorophenyl)-1,8-naphthyridine-3-pentanoic acid] displayed a Ki of 2.1 to 20 nM. As to `COc1ccc([C@@H](NC(=O)c2cnc3nc(-c4ccc(F)cc4)c(CCCCC(=O)O)cc3c2)C(F)(F)F)cc1` [Compound 6i, 2-(4-fluorophenyl)-6-[[[2,2,2-trifluoro-1(R)-(4-methoxyphenyl)ethyl]amino]carbonyl]-1,8-naphthyridine-3-pentanoic acid], the Ki was 20.1 to 200 nM. Take `O=C(O)CCCCc1cc2cc(C(=O)N[C@H]3CCCc4ccc(F)cc43)cnc2nc1-c1ccc(F)cc1` [Compound 6o, 2-(4-fluorophenyl)-6-[[(7-fluoro-1,2,3,4-tetrahydro-1(S)-naphthalenyl)amino]carbonyl]-1,8-naphthyridine-3-pentanoic acid]: the inhibition constant Ki is 20.1 to 200 nM.

Still in this assay, the particulars now being: values in text.
On to `C[C@@H](NC(=O)c1ccc2nc(-c3ccc(F)cc3)c(CCCCC(=O)O)cc2c1)c1cc(Cl)cc(Cl)c1` [Compound 5X, 6-[[[1(R)-(3,5-dichlorophenyl)ethyl]amino]carbonyl]-2-(4-fluorophenyl)-3-quinolinepentanoic acid], for which affinity was put at a Ki of 5.4 nM. As for `O=C(O)CCCCc1cc2cc(C(=O)N[C@@H]3CCc4cc(Cl)ccc43)ccc2nc1-c1ccc(F)cc1` [Compound 5o, 6-[[(5-chloro-2,3-dihydro-1H-inden-1(R)-yl)amino]carbonyl)-2-(4-fluorophenyl)-3-quinolinepentanoic acid], affinity was put at a Ki of 2.7 nM. `O=C(O)CCCCc1cc2cc(C(=O)N[C@@H]3CCCc4cc(Cl)ccc43)cnc2nc1-c1ccc(F)cc1` [Compound 6G, 6-[[(6-chloro-1,2,3,4-tetrahydro-1(R)-naphthalenyl)amino)carbonyl]-2-(4-fluorophenyl)-1,8-naphthyridine-3-pentanoic acid] came in with a Ki of 6.3 nM. As for `O=C(O)CCCCc1cc2cc(C(=O)N[C@@H]3CCCc4ccc(F)cc43)cnc2nc1-c1ccc(F)cc1` [Compound 6H, 2-(4-fluorophenyl)-6-[[(7-fluoro-1,2,3,4-tetrahydro-1(R)-naphthalenyl)amino]carbonyl]-1,8-naphthyridine-3-pentanoic acid], the affinity corresponds to a Ki of 161 nM.

Values taken from patent US9290453B2 (Merck Sharp & Dohme Corp., priority 2010, dated 2016).
